Laboratory results published in patent US9145391B2, “Bipyridylaminopyridines as Syk inhibitors” (Merck Sharp & Dohme Corp., priority 2011, dated 2015).

These molecules were tested against recombinant human GST-Syk (Homo sapiens (Human), UniProt P43405) (assay: Homogeneous Time-Resolved Fluorescence (HTRF) assay for the recombinant human Syk enzyme). Conditions: recombinant human GST-Syk 5 pM, ATP 25 μM, read-out: rhSyk IC50.
Format: biochemical
Description: Syk inhibition may be determined using the following assay protocol: Homogeneous Time-Resolved Fluorescence (HTRF) Assay for the Recombinant Human Syk Enzyme: A recombinant GST-hSyk fusion protein was used to measure potency of compounds to inhibit human Syk activity. […] To initiate the reaction the biotinylated substrate peptide (250 nM final concentration) that contains the phosphorylation site for Syk was added with magnesium (5 mM final concentration) and ATP (25 μM final concentration). […] Final volume of the quenching solution was 10 μL.

Row | IC50 [nM] | Structure (SMILES)
1 | 190 | Cc1cc(Nc2cc(C(F)F)ccn2)nc(-c2ccc(C(C)(O)[C@H]3CC[C@H](C(=O)OC(C)OC(=O)OC4CCCCC4)CC3)nc2)c1 (single isomer, unassigned) [Example 20-10, 1-{[(cyclohexyloxy)carbonyl]oxy}ethyl trans-4-[(1R or 1S)-1-(6-{[4-(difluoromethyl)pyridin-2-yl]amino}-4-methyl-2,3′-bipyridin-6′-yl)-1-hydroxyethyl] cyclohexanecarboxylate]
2 | 6 | Cc1cc(Nc2cc(C(F)(F)F)ccn2)nc(-c2ccc(NC3CCN(C(=O)c4ccccc4C#N)CC3)nc2)c1 [Example 4-112]
3 | 1 | Cc1cc(Nc2cc(C(F)(F)F)ccn2)nc(-c2ccc(C[C@H]3CC[C@@H](C(=O)O)CC3)nc2)c1 [Example 10 cis isomer, cis-4-[(4-methyl-6-{[4-(trifluoromethyl)pyridin-2-yl]amino}-2,3′-bipyridin-6′-yl)methyl]cyclohexanecarboxylic acid]
4 | 23 | Cc1cc(Nc2cc(C(F)(F)F)ccn2)nc(-c2ccc(NC3CCN(C(=O)c4ccc(Oc5ccccc5)cc4)CC3)nc2)c1 [Example 4-114]
5 | 9 | Cc1cc(Nc2cc(C(F)(F)F)ccn2)nc(-c2ccc(C3(O)CCN(C(=O)c4ccc5cc[nH]c5n4)CC3)nc2)c1 [Example 9, 4-(4-Methyl-6-{[4-(trifluoromethyl)pyridin-2-yl]amino}-2,3′-bipyridin-6′-yl)-1-(1H-pyrrolo[2,3-b]pyridin-6-ylcarbonyl)piperidin-4-ol]
6 | 17 | Cc1cc(Nc2cc(C(F)(F)F)ccn2)nc(-c2ccc(N3CC[C@H](NC(=O)c4ccc5cc[nH]c5c4)C3)nc2)c1 [Example 6-1]
7 | 19 | Cc1cc(Nc2cc(C(F)(F)F)ccn2)nc(-c2ccc(NC(C)(C)C(=O)O)nc2)c1 [Example 2-19]
8 | 1 | Cc1cc(Nc2cc(C(F)(F)F)ccn2)nc(-c2ccc(N3CC[C@H](N)C3)nc2)c1 [Example 5, 6′-[(3S)-3-aminopyrrolidin-1-yl]-4-methyl-N-[4-(trifluoromethyl)pyridin-2-yl]-2,3′-bipyridin-6-amine]
9 | 32 | CCOC(=O)OC(C)OC(=O)[C@H]1CC[C@H](C(C)(O)c2ccc(-c3cc(C)cc(Nc4cc(C(F)F)ccn4)n3)cn2)CC1 (single isomer, unassigned) [Example 20-5, 1-[(ethoxycarbonyl)oxy] ethyl trans-4-[(1R or 1S)-1-(6-{[4-(difluoromethyl)pyridin-2-yl]amino}-4-methyl-2,3′-bipyridin-6′-yl)-1-hydroxyethyl] cyclohexanecarboxylate]
10 | 4 | Cc1cc(Nc2cc(C(F)(F)F)ccn2)nc(-c2ccc(NC3CCN(C(=O)c4ccccc4N4CCN(C)CC4)CC3)nc2)c1 [Example 4-20]
11 | 61 | Cc1cc(Nc2cc(C(F)(F)F)ccn2)nc(-c2ccc(NC3CCN(C(=O)c4cccc5ccccc45)CC3)nc2)c1 [Example 4-59]
12 | 28 | Cc1cc(Nc2cc(C(F)(F)F)ccn2)nc(-c2ccc(NC3CCN(C(=O)COc4ccccc4)CC3)nc2)c1 [Example 4-80]
13 | 5 | Cc1cc(Nc2cc(C(F)(F)F)ccn2)nc(-c2ccc(NC3CCN(C(=O)CCc4nc5ccccc5s4)CC3)nc2)c1 [Example 4-121]
14 | 12 | Cc1cc(Nc2cc(C(F)(F)F)ccn2)nc(-c2ccc(NC3CCN(C(=O)c4cccc(-c5cn[nH]c5)c4)CC3)nc2)c1 [Example 4-9]
15 | 2 | Cc1cc(Nc2cc(C(F)(F)F)ccn2)nc(-c2ccc(NC3CCN(C(=O)c4ccccn4)CC3)nc2)c1 [Example 4-104]
16 | < 0.5 | Cc1cc(Nc2cc(C(F)(F)F)ccn2)nc(-c2ccc(C(C)[C@H]3CC[C@H](C(=O)O)CC3)nc2)c1 (single isomer, unassigned) [Example 14, trans-4-[(1R or 1S)-(4-Methyl-6-{[4-(trifluoromethyl)pyridin-2-yl]amino}-2,3′-bipyridin-6′-yl)ethyl]cyclohexanecarboxylic acid]
17 | < 0.5 | Cc1cc(Nc2cc(C(F)(F)F)ccn2)nc(-c2ccc(NC3CCC(C(=O)O)C(C)C3)nc2)c1 (single isomer, unassigned) [Example 3-2]
18 | 2 | Cc1cc(Nc2cc(C(F)(F)F)ccn2)nc(-c2ccc(N3CCCC(N)C3)nc2)c1 (stereo not shown) [Example 5-1]
19 | 7 | Cc1cc(Nc2cc(C(F)(F)F)ccn2)nc(-c2ccc(NC3CCN(C(=O)c4n[nH]c5ccccc45)CC3)nc2)c1 [Example 4-86]
20 | 3 | Cc1cc(Nc2cc(C(F)(F)F)ccn2)nc(-c2ccc(N3CCCC(C(=O)N4CCCC(C(=O)O)C4)C3)nc2)c1 (stereo not shown) [Example 2-28]

Row | IC50 [nM] | Structure (SMILES)
21 | 1 | Cc1cc(Nc2cc(C(F)(F)F)ccn2)nc(-c2ccc(NC3CCN(C(=O)CCCN4CCCC4=O)CC3)nc2)c1 [Example 4-89]
22 | 2 | Cc1cc(Nc2cc(C(F)(F)F)ccn2)nc(-c2ccc(N3CCN(C(=O)N4CCCC(C(=O)O)C4)CC3)nc2)c1 (stereo not shown) [Example 2-20]
23 | 7 | Cc1cc(Nc2cc(C(F)(F)F)ccn2)nc(-c2ccc(NC3CCN(C(=O)Cc4cn(C)c5ccccc45)CC3)nc2)c1 [Example 4-102]
24 | 8 | Cc1cc(Nc2cc(C(F)(F)F)ccn2)nc(-c2ccc(NC3CCN(C(=O)Cc4ccc5cn[nH]c5c4)CC3)nc2)c1 [Example 4-3]
25 | 9 | Cc1cc(Nc2cc(C(F)(F)F)ccn2)nc(-c2ccc(NC3CCN(C(=O)c4cccc5ncccc45)CC3)nc2)c1 [Example 4-13]
26 | 245 | Cc1cc(Nc2cc(C(F)(F)F)ccn2)nc(-c2ccc(NC3CCN(C(=O)c4cccc(Cl)c4)CC3)nc2)c1 [Example 4-105]
27 | 3 | Cc1cc(Nc2cc(C(F)(F)F)ccn2)nc(-c2ccc(N3CCC3C(=O)O)nc2)c1 (stereo not shown) [Example 2-11]
28 | < 0.5 | Cc1cc(Nc2cc(C(F)F)ccn2)nc(-c2ccc(C(C)(O)[C@H]3CC[C@H](C(=O)O)CC3)nc2)c1 (single isomer, unassigned) [Example 12, trans-4-[(1R or 1S)-(6-{[4-(Difluoromethyl)pyridin-2-yl]amino}-4-methyl-2,3′-bipyridin-6′-yl)-1-hydroxyethyl]cyclohexanecarboxylic acid]
29 | 21 | CCOC(=O)OC(C)OC(=O)[C@H]1CC[C@H](C(C)(O)c2ccc(-c3cc(C)cc(Nc4cc(C(F)F)ccn4)n3)cn2)CC1 (single isomer, unassigned) [Example 20-6, 1-[(ethoxycarbonyl)oxy]ethyl trans-4-[(1R or 1S)-1-(6-{[4-(difluoromethyl)pyridin-2-yl]amino}-4-methyl-2,3′-bipyridin-6′-yl)-1-hydroxyethyl] cyclohexanecarboxylate]
30 | 12 | CCOCCOCCOC(=O)[C@H]1CC[C@H](C(C)(O)c2ccc(-c3cc(C)cc(Nc4cc(C(F)F)ccn4)n3)cn2)CC1 (single isomer, unassigned) [Example 19-16, 2-(2-ethoxyethoxy)ethyl trans-4-[(1R or 1S)-1-(6-{[4-(difluoromethyl)pyridin-2-yl]amino}-4-methyl-2,3′-bipyridin-6′-yl)-1-hydroxyethyl] cyclohexanecarboxylate]
31 | 7 | Cc1cc(Nc2cc(C(F)(F)F)ccn2)nc(-c2ccc(NC3CCN(C(=O)c4cccc(Cn5cccn5)c4)CC3)nc2)c1 [Example 4-29]
32 | 97 | Cc1cc(Nc2cc(C(F)(F)F)ccn2)nc(-c2ccc(NC3CCN(C(=O)c4cccc(Oc5ccccc5)c4)CC3)nc2)c1 [Example 4-50]
33 | 9 | COC(=O)[C@H]1CC[C@H](C(C)(O)c2ccc(-c3cc(C)cc(Nc4cc(C(F)F)ccn4)n3)cn2)CC1 (single isomer, unassigned) [Example 11, Methyl trans-4-[(1R or 1S)-(6-{[4-(difluoromethyl)pyridin-2-yl]amino}-4-methyl-2,3′-bipyridin-6′-yl)-1-hydroxyethyl]cyclohexanecarboxylate]
34 | 3 | Cc1cc(Nc2cc(C(F)(F)F)ccn2)nc(-c2ccc(N3CC(C4CCC(C(=O)O)CC4)C3)nc2)c1 (stereo not shown) [Example 2-22]
35 | 7 | Cc1cc(Nc2cc(C(F)(F)F)ccn2)nc(-c2ccc(NC3CCN(C(=O)c4cccc5[nH]ccc45)CC3)nc2)c1 [Example 4-33]
36 | 10 | Cc1cc(Nc2cc(C(F)(F)F)ccn2)nc(-c2ccc(NC3CCN(C(=O)CCOc4ccccc4)CC3)nc2)c1 [Example 4-76]
37 | 7 | Cc1cc(Nc2cc(C(F)(F)F)ccn2)nc(-c2ccc(NC3CCN(C(=O)c4ccccc4Cn4cncn4)CC3)nc2)c1 [Example 4-26]
38 | > 10000 | CCCCCCCCOC(=O)[C@H]1CC[C@H](C(C)(O)c2ccc(-c3cc(C)cc(Nc4cc(C(F)F)ccn4)n3)cn2)CC1 (single isomer, unassigned) [Example 19-11, octyl trans-4-[(1R or 1S)-1-(6-{[4-(difluoromethyl)pyridin-2-yl]amino}-4-methyl-2,3′-bipyridin-6′-yl)-1-hydroxyethyl] cyclohexanecarboxylate]
39 | 3 | Cc1cc(Nc2cc(C(F)(F)F)ccn2)nc(-c2ccc(NC3CCN(C(=O)Cc4ccc(O)cc4)CC3)nc2)c1 [Example 4-108]
40 | 3 | Cc1cc(Nc2cc(C(F)(F)F)ccn2)nc(-c2ccc(N3CCCC3C(=O)O)nc2)c1 (stereo not shown) [Example 2-10]

Row | Structure (SMILES) | IC50 [nM]
41 | CC(C)(O)c1cc(Nc2cc(C(F)F)ccn2)nc(-c2ccc(C(C)(O)C3CCC(C(=O)O)CC3)nc2)c1 (stereo not shown) [Example 1-34] | 1
42 | Cc1cc(Nc2cc(C3CC3)ccn2)nc(-c2ccc(C(C)(O)C3CCC(C(=O)O)CC3)nc2)c1 (stereo not shown) [Example 1-32] | 1
43 | CCC(O)(c1ccc(-c2cc(C)cc(Nc3cc(C(F)(F)F)ccn3)n2)cn1)C1CCC(C(=O)O)CC1 (stereo not shown) [Example 1-30] | < 0.5
44 | Cc1cc(Nc2cc(C(F)F)ccn2)nc(-c2ccc(C(C)(C)O)nc2)c1 [Example 1-14] | 8
45 | Cc1cc(Nc2cc(C(F)(F)F)ccn2)nc(-c2ccc(C3(O)CCC(C(=O)O)C(C)(C)C3)nc2)c1 (stereo not shown) [Example 1-25] | 1
46 | COC(=O)C1CCC(O)(c2ccc(-c3cc(C)cc(Nc4cc(C(F)(F)F)ccn4)n3)cn2)CC1(C)C (single isomer, unassigned) [Example 1-6] | 405
